One test concerns SKOV3 cancer cells. The test is described as follows: Cell viability (CellTiter-Glo) on adherent SKOV3 cancer cells. It is filed as cell-based, human. The procedure: Cell Cultures Human ovarian carcinoma cell lines HEY A8 and SKOV3 were gifts from Professor Alice Wong's group (The University of Hong Kong). Cells were grown in Dulbecco's Modified Eagle (DMEM) medium supplemented with 10% FBS and 1% penicillin/streptomycin at 37° C. in a humidified atmosphere containing […] CO2. Isolation and culture of spheres were performed in serum-free stem-cell-selective condition as described in literature Ip etl. Oncogene 2014, 5, 9133-9149. Briefly, 1-2 weeks after plating, non-adherent spherical clusters of cells could be observed and were separated from single cells by low speed centrifugation. After 8th to 10th passages, the non-adherent spherical clusters of cells appeared as distinct spheres. Using this selection condition, HEY A8 spheres (HEY A8 SP) or SKOV3 spheres (SKOV3 SP) could be enzymatically dissociated and reformed into spheres within 3 days under stem-cell-selective condition. To allow differentiation, dissociated sphere cells were plated on tissue culture plates in medium (MCDB 105:M199=1:1) supplemented with 10% FBS and 1% PS.
HEY A8 or SKOV3 cancer Cells were plated in triplicate in 0.1 mL full medium in 96-well plates for 24 h. After that, the medium was changed to the fresh prepared medium with various concentrations of compounds. Cells were incubated for another 48 h. Then the cell viability was measured by CellTiter-Glo® Luminescent Cell Viability reagent according to the manufacture's instruction. The luminescence at 550 nm was measured using a microplate reader (SpectraMax 340PC 384, Molecular Devices).
In general terms: ATP-based viability assays read luminescence as a measure of living cells.

Another test relates to HEK293. As to the kind of experiment: Toxicity against normal cell line HEK293. It is filed as cell-based. The text has this:
(§1) Fourteen compounds including aminoxy acid monomers and dipeptides have been identified to show toxicity against HEY A8 CSCs. The half maximal inhibitory concentration (IC50) values of compounds sff-2-112, sff-2-124, sff-2-132 and sff-2-100 towards adherent cancer HEY A8, SKOV3 cells and CSCs were further determined. […] Especially compound sff-2-132, its selectivity to CSCs is up to 60-fold higher than that to cancer cells. Their toxicity against other normal cell lines NIH3T3, HEK293 and MDCK were also tested and the IC50 values were summarized in Table 1.

A further test concerns Adherent Hey A8 cells. As to the kind of experiment: Cell respiration, oxygen consumption rate (Seahorse XF24). It is filed as cell-based, human. The following applies: FIG. 10; for cell respiration response to subsequent addition of FCCP, antimycin A and rotenone: more obvious at higher doses. The procedure:
Cell respiration was measured by using an XF24 Extracellular Flux Analyzer (Seahorse, Bioscience), which measures the oxygen consumption rate (OCR). Adherent Hey A8 cells were seeded at 50000 cells/well in […] of their culture medium and incubated for 24 h at 37° C. in humidified atmosphere with 5% CO2. The medium was then replaced with 670 μL/well of high-glucose DMEM without serum and supplemented with 1 mM sodium pyruvate and 2 mM L-glutamine. The oxygen consumption rate (OCR) was measured with an extracellular flux analyzer (Seahorse) at preset time intervals upon the preprogrammed additions of the following compounds: Oligomycin to 1 μM, FCCP to 500 nM, Antimycin A and Rotenone to 0.5 μM final concentrations.

In another test the test system is MDCK. As to the kind of experiment: Toxicity against normal cell line MDCK. The test is classed as cell-based.
From the text: as §1

The subject of test [1] is HEY A8 cells. The test is described as follows: Population of CD133+ cells by flow cytometry (PE-conjugated CD133 antibody). The following applies: 15 μM; for population of CD133+ cells after treatment: control 21.8%. It is filed as cell-based, human. The protocol: CD133 has been reported to be a marker of ovarian CSCs. After cells treated with synthetic molecule, the population of CD133^+ cells were measured. HEY A8 cells were treated with taxol (100 nM), compound sff-2-112 (“Example 1”) or sff-2-132 (“Example 4”) at the concentration of 15 μM. Medium containing 0.1% DMSO was used as a negative control.
A suspension of HEY A8 cells at the concentration of 2.5×10^4 cells/mL in DMEM medium were seeded into 60-mm cell culture dishes. Cells were incubated at 37° C. in a humidified atmosphere containing 5% CO2 for 24 h, followed by the addition of 4 mL fresh medium or medium containing Paclitaxel (100 nM), sff-2-112 (15 μM) or compound sff-2-132 (15 μM). Medium containing 0.1% DMSO was used as a negative control. After 3 days, the medium was removed and cells were washed with cold PBS twice, and then stained with PE-conjugated CD133 antibody according to the manufacture's instruction. The fluorescence was analyzed by flow cytometry.
For orientation: In flow cytometry, cells or beads pass a laser one at a time.

In test [2] the test system is HEY A8 cells. As to the kind of experiment: Superoxide production (HKSOX-2m fluorescence). The test is classed as cell-based, human. The following applies: 5 μM, within 30 min. The procedure:
The ability of compound sff-2-112 (“Example 1”) or sff-2-132 (“Example 4”) to induce ROS production was also evaluated on HEY A8 cells (FIG. 9). The ROS production was monitored by superoxide fluorescent probe HKSOX-2m. The increase in fluorescence intensity indicated superoxide production. (n=50-100 cells).
A suspension of HEY A8 cells at the concentration of 5×10^4 cells/mL in DMEM medium were seeded into 30-mm cell culture dishes with glass bottom (MatTek). Cells were incubated at 37° C. in a humidified atmosphere containing 5% CO2 for 24 h. Medium was aspirated and cells was washed with PBS buffer twice. Then 1 mL HBSS buffer containing 4 μM HKSOX-2m was added. Cells were incubated at 37° C. for 30 min before the buffer was aspirated and washed twice with HBSS buffer. Cells were imaged in 0.8 mL HBSS buffer. Fluorescence was monitored by confocal microscope (ZEISS LSM 710; Red channel: λex=543 nm). At t=180 s, compound in 0.2 mL HBSS buffer was added to give the final concentration of 5 μM. Quantitative data were obtained using the ZEN and GraphPad Prism software.

The next test has as its system NIH3T3. The test is described as follows: Toxicity against normal cell line NIH3T3. It is filed as cell-based.
From the text: as §1

Test [3] concerns HEY A8 cells. As to the kind of experiment: Mitochondrial membrane potential (JC-1 red to green ratio). It is filed as cell-based, human. The following applies: for mitochondrial membrane potential, kinetic study: 10 μM added at 180 s, image interval 30 s; for mitochondrial membrane potential depolarization: treated 10 min, FIG. 8a. The procedure:
A suspension of HEY A8 cells at the concentration of 5×10^4 cells/mL in DMEM medium were seeded into 30-mm cell culture dishes with glass bottom (MatTek). Cells were incubated at 37° C. in a humidified atmosphere containing 5% CO2 for 24 h. Medium was aspirated and cells was washed with PBS buffer twice. Then 1 mL HBSS buffer containing 2.5 μM JC-1 was added. Cells were incubated at 37° C. for 20 min before the buffer was aspirated. Cells were washed with PBS buffer twice and treated with cation transporters for 10 min. Fluorescence was monitored by confocal imaging with ZEISS LSM 780 (Red channel: λex=543 nm, Green channel: λex=488 nm). Quantitative data were obtained using the ZEN and Graph Pad Prism software packages.
The Kinetic study of this compound on the MMP in HEY A8 cells was also conducted. Compound sff-2-112 (“Example 1”) or sff-2-132 (“Example 4”) at the final concentration of 10 μM was added at 180 s. The interval for each image was 30 s. The decrease in red to green fluorescence ratio of JC-1 indicates MMP depolarization.

Where two headings read alike, the source gives them in different places.

Turning to `CC(C)(C)OC(=O)[C@@H](COCc1ccccc1)ONC(=O)c1cc(C(F)(F)F)cc(C(F)(F)F)c1` [sff-2-132], the 50% inhibitory concentration (IC50) in the test with SKOV3 cancer cells (Homo sapiens, SK-OV-3, 48 h incubation) came out at 63.4 ± 8.9 µM; in the test on HEK293 (Homo sapiens, HEK293) it was 70.3 ± 1.7 µM; in the test with MDCK (Canis lupus familiaris, MDCK), 49.1 ± 0.4 µM; with NIH3T3 (Mus musculus, NIH3T3) it was 58 ± 2.2 µM. Moreover, the “OCR after addition of compound” value in the test with Adherent Hey A8 cells is recorded as “OCR immediately increased”. For the same molecule, the “cell respiration response to subsequent addition of FCCP, antimycin A and rotenone” value with Adherent Hey A8 cells was “significantly decreased”. Moreover, in the test on HEY A8 cells [1], the “population of CD133+ cells relative to DMSO treated group” value is on record as “significantly reduced the population of CD133^+ cells”. The “decrease of CD133+ population” value in the test on HEY A8 cells [1] (3 days, from 21.8%) is listed as “around 10 fold”. For the same molecule, the “population of CD133+ cells after treatment” value in the test with HEY A8 cells [1] (3 days) was 1.9%. Also, the “increasement of superoxide production” value in the test on HEY A8 cells [2] is reported as “about 2 fold”. The “mitochondrial membrane potential, kinetic study” value with HEY A8 cells [3] was “MMP depolarized immediately”. In the test on HEY A8 cells [3], the “mitochondrial membrane potential depolarization” value is “effectively depolarize mitochondrial membrane potential (MMP) of HEY A8 cells in a dose dependent manner”.

On to `O=C(NO[C@H](COCc1ccccc1)C(=O)Nc1ccccc1)c1cc(C(F)(F)F)cc(C(F)(F)F)c1` [sff-2-112], for which the IC50 in the test on SKOV3 cancer cells (48 h incubation) was 42.1 ± 5.2 µM; with HEK293, 51 ± 1 µM; with MDCK, 25.1 ± 1.1 µM; in the test on NIH3T3 it was 30.5 ± 1.1 µM. Besides, in the test with Adherent Hey A8 cells, the “OCR after addition of compound” value is listed as “OCR immediately increased”. The “cell respiration response to subsequent addition of FCCP, antimycin A and rotenone” value in the test with Adherent Hey A8 cells is on record as “significantly decreased”. Moreover, the “population of CD133+ cells relative to DMSO treated group” value in the test on HEY A8 cells [1] is “significantly reduced the population of CD133^+ cells”. For the same molecule, the “population of CD133+ cells after treatment” value with HEY A8 cells [1] (3 days) was 12.6%. Further, the “increasement of superoxide production” value in the test on HEY A8 cells [2] is reported as “about 2 fold”. Moreover, the “mitochondrial membrane potential, kinetic study” value with HEY A8 cells [3] is given as “MMP depolarized immediately”. In addition, in the test with HEY A8 cells [3], the “mitochondrial membrane potential depolarization” value is “effectively depolarize mitochondrial membrane potential (MMP) of HEY A8 cells in a dose dependent manner”.

One may read the IC50 as the concentration at which inhibition is half-maximal. Read a high IC50 as weaker potency.

The record behind these values is patent publication US12539284B2, “Aminoxy acid-based anti-cancer stem cell compounds and methods thereof” (Westlake University, priority 2019, dated 2026).
